Key:
[1] = tested on: ACTH-stimulated corticosterone; assay: Single oral dose with repeated ACTH(1-24) challenges in rats; assay type: in vivo, rat; settings: for suppression of ACTH-stimulated corticosterone: vs vehicle
Description: The ability of a single dose of Compound 1 to suppress corticosterone after repeated ACTH(1-24) (1 μg/kg) challenges was evaluated to determine the reproducibility of the ACTH-stimulated corticosterone response and the amount of time required to restore the corticosterone response to vehicle levels.
Compound 1 suppressed ACTH-stimulated corticosterone at 1 hour (44% and 88% with 3 and 30 mg/kg, respectively) and 4 hours (36% and 84% with 3 and 30 mg/kg, respectively) post-oral administration compared to vehicle treatment.

[2] = tested on: basal and ACTH-stimulated cortisol; assay: Phase 1 MAD study, basal and ACTH-stimulated cortisol; assay type: in vivo, human
Description: This Phase 1, first-in-human, double-blind, randomized, placebo-controlled study will evaluate the safety of Compound 1 in healthy volunteers as well as the relationship between exposure and pharmacodynamic (PD) parameters, including ACTH-stimulated and endogenous cortisol secretion measured in blood, saliva, and urine. Results will be used to inform endpoints and other parameters in future later studies in patients with Cushing's disease (CD) or other diseases of excess adrenocorticotropic hormone (ACTH), including Congenital Adrenal Hyperplasia (CAH) and Ectopic ACTH Syndrome (EAS).
MAD/Part 2: multiple ascending dose, randomized, placebo-controlled, double-blind; 2 planned and up to 4 total cohorts (n=36). In each cohort, 6 subjects will receive Compound 1, 3 subjects will receive the placebo. The doses will not exceed the doses in the SAD.
Starting on Day −1 until EOS (or ET), fasting pre-dose blood samples are collected <15 minutes prior to dosing for measurement of serum cortisol, A4, 17-OHP, aldosterone, ACTH(1 39), renin, and DHEAS. […] Cosyntropin is then administered (250 mcg in the “high dose” test; 1 mcg in the “low dose” test) to define time 0 of the ACTH-stimulation test. […]
At Screening and on Days 2, 3, 5, 6, 7, 8, 10, 11, and 12, fasting blood samples are collected for measurement of serum cortisol at 4 hours (15 minutes) post-dose (˜1200 hr). On Days in which the ACTH-stimulation test is conducted, this collection will be 120 min post-cosyntropin administration such that post-cosyntropin cortisol collection times are Time 30 minutes (5 minutes), Time 60 minutes (5 minutes), and Time 120 minutes (5 minutes).
A 24-hour blood biomarker profile is measured starting Day −1 until Day 1 pre-dose, Day 1 post-dose until Day 2 pre-dose, Day 4 post-dose until Day 5 pre-dose, and Day 9 post-dose until Day 10 pre-dose.

CCOc1ccccc1-c1ccc(N2CCN(C(=O)C3(C(F)(F)F)CCC3)C[C@H]2CC)c(C(=O)N[C@@H]2CN3CCC2CC3)n1 [Compound 1, 6-(2-ethoxyphenyl)-3-((R)-2-ethyl-4-(1-(trifluoromethyl)cyclobutane-1-carbonyl)piperazin-1-yl)-N—((S)-quinuclidin-3-yl)picolinamide]
ACTH-stimulated corticosterone ([1]; 24 and 48 hours after single oral 3 or 30 mg/kg): returned to normal, vehicle levels | suppression of ACTH-stimulated corticosterone ([1]; 1 hour post-oral administration, 3 mg/kg): 44% | suppression of ACTH-stimulated corticosterone ([1]; 1 hour post-oral administration, 30 mg/kg): 88% | suppression of ACTH-stimulated corticosterone ([1]; 4 hours post-oral administration, 3 mg/kg): 36% | suppression of ACTH-stimulated corticosterone ([1]; 4 hours post-oral administration, 30 mg/kg): 84% | basal and ACTH-stimulated cortisol secretion ([2]; 4 h post-dose throughout the MAD study): suppressed basal and ACTH-stimulated cortisol secretion | basal unstimulated cortisol ([2]; at 24 hours (before the next dose)): suppression of basal unstimulated cortisol was not observed | basal and ACTH-stimulated cortisol levels ([2]; high dose ACTH-stimulation test, after 10 days of dosing): suppressed basal and ACTH-stimulated cortisol levels
